The source of these data is PubChem BioAssay (NCI).

Common to all, as to assay: inhibition of tumour cell growth, NCI panel, 48 h
For experiment [1], the system named is ACHN renal.
Experiment [2] concerns SW-620 colon.
Experiment [3] concerns HOP-62 NSCLC.
The subject of experiment [4] is SNB-19 CNS.
For experiment [5], the system named is MALME-3M melanoma.
Experiment [6] deals with SK-MEL-5 melanoma.

SMILES strings stand for the structures.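 Protocol summary: plate cells (96-well), add compound at 5 concentrations, incubate 48 h, interpolate endpoints linearly. Here, GI50 denotes the concentration required for 50% inhibition of growth. TGI: total growth inhibition.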 Where a SMILES comes first, the peptide text is derived from it.

On to `Cc1cc(C)n(-c2nc3ccccc3c(=O)n2-c2ccccc2)n1`, for which the TGI in experiment [1], in experiment [2], in experiment [3], in experiment [4], in experiment [5] and in experiment [6] was greater than 100 µM each time.

With `CC(C)=CCC[C@](C)(O[C@@H]1O[C@H](CO)[C@@H](O)[C@H](O)[C@H]1O)[C@H]1CC[C@]2(C)[C@@H]1[C@H](O)C[C@@H]1[C@@]3(C)CC[C@H](O)C(C)(C)[C@@H]3[C@@H](O[C@@H]3O[C@H](CO)[C@@H](O)[C@H](O)[C@H]3O)C[C@]12C`, the TGI in experiment [1], in experiment [2], in experiment [3], in experiment [4], in experiment [5] and in experiment [6] was greater than 100 µM throughout.

Consider `COc1c(C)c(C/C=C(\C)CCCCO)c(OC)c(OC)c1OC`, for which the TGI in experiment [1], in experiment [2], in experiment [3], in experiment [4] and in experiment [6] was greater than 100 µM each time.

On to `COc1ccc(CC2c3cc(OC)c(OC)c(OC)c3CC[N+]2(C)C)cc1Oc1ccc(CC2c3cc4c(c(OC)c3CCN2C)OCO4)cc1` (centres undefined), for which the TGI in experiment [1], in experiment [2], in experiment [4], in experiment [5] and in experiment [6] was greater than 100 µM each time.

On to `c1ccc(N=c2sc3ccccc3sc2=Nc2ccccc2)cc1`, for which the TGI amounted to 3.03 µM in experiment [1]; 3.27 µM in experiment [2]; 15.3 µM in experiment [3]; 16.7 µM in experiment [4]; 3.57 µM in experiment [5]; 5.14 µM in experiment [6].

As to `C/C=C/C(C#N)(Cc1ccccc1)OP1(=O)OC(c2ccccc2)C(C)N1C` (centres undefined), the TGI in experiment [1], in experiment [2], in experiment [3], in experiment [4], in experiment [5] and in experiment [6] was greater than 100 µM throughout.

For `Cc1c2cccc-2ccc2c1[nH]c1ccc(Br)cc12`, the TGI in experiment [1] was 24.4 µM; in experiment [2], 25.2 µM; in experiment [3], 20.1 µM; in experiment [4], 23.8 µM; in experiment [5], 21.5 µM; in experiment [6], 13.4 µM.

Turning to `CN1C(=O)[C@@H]2N(CSC2(C)C)C1=S`, the TGI in experiment [1], in experiment [2], in experiment [3], in experiment [4] and in experiment [6] was greater than 100 µM in each case.

Regarding `CCOC(=O)CCC(C(=O)OCC)n1nnc2ccc(Nc3c(C)[n+]([O-])c4cc(Cl)ccc4[n+]3[O-])cc21` (centres undefined), the TGI in experiment [1] is greater than 100 µM; in experiment [3] it was greater than 100 µM; in experiment [4], greater than 100 µM; in experiment [5], 35.2 µM.

With `COC(=O)n1c(=O)n(-c2ccccc2)c(=O)n1C(=O)Nc1ccccc1`, the TGI in experiment [1], in experiment [2], in experiment [3], in experiment [4], in experiment [5] and in experiment [6] was greater than 100 µM in each case.

Consider `CC(=O)NC(CS)C(=O)NC(CO)C(=O)NC(CO)C(=O)NC(Cc1c[nH]c2ccccc12)C(=O)N1CCCC1C(=O)NC(CO)C(=O)NC(Cc1c[nH]c2ccccc12)C(=O)NC(Cc1c[nH]cn1)C(=O)NC(CO)C(=O)NC(Cc1c[nH]c2ccccc12)C(=O)NCC(=O)NCC(=O)NC(CC(=O)O)C(=O)NC(CCC(N)=O)C(=O)NC(CCCCN)C(=O)NC(Cc1ccccc1)C(=O)NC(CCCNC(=N)N)C(=O)NC(CCCCN)C(N)=O` (centres undefined) (Ac-CSSWPSWHSWGGDQKFRK-NH2; configuration not given here), for which the TGI in experiment [1], in experiment [2], in experiment [3], in experiment [4], in experiment [5] and in experiment [6] was greater than 25 µM in each case.

On to `Cc1cc(S(=O)(=O)n2ccnc2Oc2ccccc2)c(SSc2cc(Cl)c(C)cc2S(=O)(=O)n2ccnc2Oc2ccccc2)cc1Cl`, for which the TGI in experiment [2], in experiment [4], in experiment [5] and in experiment [6] was greater than 100 µM throughout.

`O=C1Oc2ccccc2C(=O)/C1=C/N1C(=O)N/C(=C\c2cccc(O)c2)C1=O`: the TGI in experiment [1], in experiment [2], in experiment [3], in experiment [4] and in experiment [6] was greater than 100 µM throughout.

For the molecule `CN1CCCC1=NC#N`, the TGI in experiment [1], in experiment [2], in experiment [3], in experiment [4], in experiment [5] and in experiment [6] was greater than 100 µM each time.

For `Nc1ccc(Nc2c3ccccc3nc3ccccc23)cc1`, the TGI in experiment [1] is 4.58 µM; in experiment [2] it was greater than 10 µM; in experiment [3], greater than 10 µM; in experiment [4], greater than 10 µM; in experiment [5], 8.96 µM; in experiment [6], greater than 10 µM.

Consider `CCN(CC)CCn1c2cc3c(cc2c(=O)c2cccnc21)OCO3`, for which the TGI in experiment [1], in experiment [2], in experiment [3], in experiment [4], in experiment [5] and in experiment [6] was greater than 10 µM each time.

For the molecule `COc1ccc2c(c1)CCCN1Cc3cc(OC)c(OC)cc3CC21` (centres undefined), the TGI in experiment [1], in experiment [2], in experiment [3], in experiment [4], in experiment [5] and in experiment [6] was greater than 100 µM in each case.

Consider `S=C(N/N=C(/c1ccccc1)c1ccccn1)Nc1ccc(Cl)cc1`, for which the TGI was found to be 9.01 µM in experiment [1]; 11.1 µM in experiment [2]; 16.6 µM in experiment [3]; 20.7 µM in experiment [4]; 10.6 µM in experiment [5]; 8.1 µM in experiment [6].

Take `O=C(Cc1ccccc1)NNc1nc(NNC(=O)c2ccncc2)nc(Nc2ccccc2)n1`: the TGI in experiment [3] and in experiment [5] was greater than 10 µM throughout.

For the molecule `C[C@H]1CCCCC[C@@H]2CC(=O)CC2C(=O)CCC(=O)O1` (some centres undefined), the TGI in experiment [1], in experiment [2], in experiment [3], in experiment [4], in experiment [5] and in experiment [6] was greater than 100 µM each time.

Consider `CC[C@H](C)C1=C(O)[N@+]2([O-])Oc3ccc(-c4c(O)c(O)c(-c5ccc(OC(C)=O)cc5)c(OC(C)=O)c4OC(C)=O)cc3O[C@]2([C@@H](C)CC)C(=O)N1O`, for which the TGI is greater than 50 µM in experiment [1]; 23.6 µM in experiment [2]; greater than 50 µM in experiment [3]; greater than 50 µM in experiment [4]; greater than 50 µM in experiment [5]; greater than 50 µM in experiment [6].

Regarding `Cc1nc(-c2cc3c(ccc4ccccc43)oc2=O)cc2c1c(=O)oc1ccc3ccccc3c12`, the TGI in experiment [1], in experiment [2], in experiment [3], in experiment [4], in experiment [5] and in experiment [6] was greater than 100 µM each time.

For `Cc1cc2c(cc1C)C(=O)C1(C2)Cc2c(ccc(C)c2C)C1=O` (centres undefined), the TGI in experiment [1], in experiment [2], in experiment [4], in experiment [5] and in experiment [6] was greater than 100 µM in each case.

Take `NC1CC(=O)c2csc(Cl)c21` (centres undefined): the TGI in experiment [1] worked out at 10.3 µM; in experiment [3] it was 29.1 µM; in experiment [4] it was 33.2 µM; in experiment [5], 7.56 µM; in experiment [6], 35.3 µM.

Turning to `O=C(Nc1nnc(-c2c(Cl)c(Cl)c(Cl)c(Cl)c2-c2nc3cc(C(=O)c4ccccc4)ccc3[nH]2)o1)c1ccccc1`, the TGI in experiment [1] was 55.6 µM; in experiment [2] it was greater than 100 µM; in experiment [3], 26.3 µM; in experiment [4], 34.7 µM; in experiment [6], 18.5 µM.

Take `CCN(CC)CCOC(=O)CCN1CC2CCC(CC2)C1`: the TGI in experiment [1], in experiment [2], in experiment [4], in experiment [5] and in experiment [6] was greater than 100 µM throughout.

For the molecule `CCN1C(=O)c2ccccc2C1(O)c1ccc(Cl)cc1` (centres undefined), the TGI in experiment [1], in experiment [2], in experiment [3], in experiment [4] and in experiment [6] was greater than 100 µM in each case.

As to `Cc1cc(N(CCCCl)CCCCl)ccc1C=Nc1cccc(Cl)c1`, the TGI in experiment [1] is 25.8 µM; in experiment [2], 25.4 µM; in experiment [4] it was 34.6 µM; in experiment [5], 22.8 µM; in experiment [6], 27.4 µM.

With `NCCCCN(CCCN)Cc1ccccc1`, the TGI in experiment [1], in experiment [2], in experiment [3], in experiment [4] and in experiment [6] was greater than 100 µM throughout.

Take `COc1ccc(C2=Nn3c(nc4sc(-c5ccccc5)cc4c3=O)SC2)cc1`: the TGI in experiment [1], in experiment [2], in experiment [3], in experiment [5] and in experiment [6] was greater than 100 µM in each case.

Take `O=C1/C(=C/c2ccccc2)N=C(c2ccccc2)N1C1Nc2cc3c(cc2S1)NC(N1C(=O)/C(=C/c2ccccc2)N=C1c1ccccc1)S3` (centres undefined): the TGI in experiment [1] was greater than 100 µM; in experiment [2], 78.5 µM; in experiment [3], greater than 100 µM; in experiment [6] it was greater than 100 µM.

With `CCCN(CCC)c1cc2c(cc1F)c(=O)c(C(=O)O)cn2-c1ccc(N2CCN(C)CC2)cn1`, the TGI was 48.2 µM in experiment [2], 31.4 µM in experiment [3], 31.5 µM in experiment [4] and 27.9 µM in experiment [5].

With `Nc1ccc2cc3[nH]c4cc(N)ccc4c3nc2c1`, the TGI came to 0.257 µM in experiment [1]; 0.845 µM in experiment [2]; 1.13 µM in experiment [3]; 3.76 µM in experiment [4]; 0.923 µM in experiment [6].

As to `N#Cc1c(N)c2c(c(-c3ccccc3)c1-c1ccccc1)C(=O)N(NC(=O)c1ccccc1)C2=O`, the TGI in experiment [1], in experiment [2], in experiment [4], in experiment [5] and in experiment [6] was greater than 100 µM throughout.

`COc1ccc(C2CC(c3ccc4ccccc4c3O)=NN2C(C)=O)cc1OC` (centres undefined): the TGI in experiment [1], in experiment [2], in experiment [3], in experiment [5] and in experiment [6] was greater than 100 µM throughout.

Regarding `CN(C)CCCNc1ccnc2cc([N+](=O)[O-])ccc12`, the TGI is 61.5 µM in experiment [1]; 30 µM in experiment [2]; 42.3 µM in experiment [3]; 11.4 µM in experiment [5]; 24.1 µM in experiment [6].

As for `COc1ccc(OC)c(C#Cc2ccc(OC)c(C(=O)NCCc3ccc(F)cc3)c2)c1`, the TGI in experiment [1], in experiment [2], in experiment [3], in experiment [4] and in experiment [6] was greater than 100 µM each time. For the same molecule, the GI50 in experiment [3] is 4.94 µM.

Consider `O=C1C[C@@H](Sc2ccccc2)C2(OCCO2)[C@H]2ON3CCC[C@@H]3[C@@H]12`, for which the TGI is 15.2 µM in experiment [1]; 13.5 µM in experiment [2]; 13.8 µM in experiment [3]; 29 µM in experiment [4]; 4.31 µM in experiment [5].

Consider `CCO/C=N/C1=C(C#N)C(c2ccc(Cl)cc2)c2c(-c3ccccc3)nn(-c3ccccc3)c2O1` (centres undefined), for which the TGI was 29.5 µM in experiment [1]; greater than 66.5 µM in experiment [2]; 86.5 µM in experiment [3]; 24.7 µM in experiment [4]; 30 µM in experiment [5].

For `COc1cc2nc(-c3ccccc3F)[nH]c(=O)c2cc1OC`, the TGI in experiment [1], in experiment [3], in experiment [4], in experiment [5] and in experiment [6] was greater than 100 µM throughout.

With `COCOCC1CCCN1CN1CCC[C@H]1COCOC` (some centres undefined), the TGI in experiment [1], in experiment [2], in experiment [3], in experiment [4] and in experiment [6] was greater than 100 µM in each case.
